According to article PMC9299836 (eLife, 2022):
Values joined by “and” are separate entries in the source; they are usually repeats but may differ in a detail not shown here. Identical values can stand only once. Like-named read-outs stand apart in the source and are kept apart here.

Columns and labels:
[1] = target: mGluR2 (Mus musculus, UniProt Q14BI2, A548F); experiment: Live-cell FRET, azi-CRD (cysteine-rich domain) sensor in HEK293T cells; conditions: for Normalized FRET response, Mean (azi-CRD agonist DRC): maximal responses normalized to 1mM glutamate
[2] = target: mGluR2 (Mus musculus, UniProt Q14BI2, INS715F); experiment: Live-cell FRET, azi-ECL2 (7TM domain, extracellular loop 2) sensor in HEK293T cells;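 note: Cy3/Cy5 click-labeled sensor, whole-membrane ROIs per cell, apparent FRET after bleed-through correction, ΔFRET as treatment minus pre-treatment signal, at room temperature, at least three biological replicates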
[3] = target: T1, mGluR2 (Mus musculus, UniProt Q14BI2); experiment: Live-cell FRET, SNAP-m2 (VFT domain) inter-subunit sensor in HEK293T cells; conditions: for Normalized FRET response, Mean (SNAP-m2 agonist DRC): maximal responses normalized to 1mM glutamate;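 for all read-outs here: apparent FRET efficiency from whole-membrane ROIs of single cells, corrected for donor bleed-through and background, ΔFRET as treatment minus pretreatment signal, recorded at room temperature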
[4] = target: T1, mGluR2; experiment: Functional calcium imaging, SNAP-mGluR2 (no FLAG-tag) with chimeric G protein Gqo5 in HEK293T cells; format: cell-based; set-up: Full length mGluR2 construct with an amber codon (TAG) mutation of amino acid A548 (azi-CRD) or N-terminal SNAP-tag (SNAP-mGluR2); host or cells: HEK293T; conditions: for Intracellular Ca2+ response, Mean / Intracellular Ca2+ response: normalized to 1mM glutamate; for Intracellular Ca2+ response: single experiments

Sequence of mGluR2 (Mus musculus, UniProt Q14BI2, INS715F) (Q14BI2 with tags, fused parts or gaps INS715F): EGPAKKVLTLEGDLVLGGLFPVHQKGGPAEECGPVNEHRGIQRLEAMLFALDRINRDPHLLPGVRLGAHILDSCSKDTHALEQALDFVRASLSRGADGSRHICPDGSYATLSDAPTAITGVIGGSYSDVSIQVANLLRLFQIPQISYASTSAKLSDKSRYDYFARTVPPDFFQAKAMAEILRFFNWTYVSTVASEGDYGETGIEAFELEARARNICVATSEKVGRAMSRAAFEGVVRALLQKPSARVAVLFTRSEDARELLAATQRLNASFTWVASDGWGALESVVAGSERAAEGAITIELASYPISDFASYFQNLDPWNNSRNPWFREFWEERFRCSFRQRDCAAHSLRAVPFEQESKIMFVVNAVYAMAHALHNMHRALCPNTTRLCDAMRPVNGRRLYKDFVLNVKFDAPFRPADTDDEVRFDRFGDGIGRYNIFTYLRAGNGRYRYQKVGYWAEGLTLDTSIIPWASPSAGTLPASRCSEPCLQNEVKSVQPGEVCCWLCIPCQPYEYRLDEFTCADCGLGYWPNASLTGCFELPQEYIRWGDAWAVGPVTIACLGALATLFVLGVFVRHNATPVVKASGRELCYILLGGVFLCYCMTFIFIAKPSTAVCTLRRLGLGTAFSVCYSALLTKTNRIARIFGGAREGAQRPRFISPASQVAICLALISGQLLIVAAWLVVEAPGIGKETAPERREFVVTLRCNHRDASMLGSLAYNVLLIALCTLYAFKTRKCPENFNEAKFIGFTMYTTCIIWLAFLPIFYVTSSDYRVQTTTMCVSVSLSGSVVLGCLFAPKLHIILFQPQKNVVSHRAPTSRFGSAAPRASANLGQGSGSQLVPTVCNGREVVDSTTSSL
Sequence of mGluR2 (Mus musculus, UniProt Q14BI2, A548F) (Q14BI2 19-872 A548F): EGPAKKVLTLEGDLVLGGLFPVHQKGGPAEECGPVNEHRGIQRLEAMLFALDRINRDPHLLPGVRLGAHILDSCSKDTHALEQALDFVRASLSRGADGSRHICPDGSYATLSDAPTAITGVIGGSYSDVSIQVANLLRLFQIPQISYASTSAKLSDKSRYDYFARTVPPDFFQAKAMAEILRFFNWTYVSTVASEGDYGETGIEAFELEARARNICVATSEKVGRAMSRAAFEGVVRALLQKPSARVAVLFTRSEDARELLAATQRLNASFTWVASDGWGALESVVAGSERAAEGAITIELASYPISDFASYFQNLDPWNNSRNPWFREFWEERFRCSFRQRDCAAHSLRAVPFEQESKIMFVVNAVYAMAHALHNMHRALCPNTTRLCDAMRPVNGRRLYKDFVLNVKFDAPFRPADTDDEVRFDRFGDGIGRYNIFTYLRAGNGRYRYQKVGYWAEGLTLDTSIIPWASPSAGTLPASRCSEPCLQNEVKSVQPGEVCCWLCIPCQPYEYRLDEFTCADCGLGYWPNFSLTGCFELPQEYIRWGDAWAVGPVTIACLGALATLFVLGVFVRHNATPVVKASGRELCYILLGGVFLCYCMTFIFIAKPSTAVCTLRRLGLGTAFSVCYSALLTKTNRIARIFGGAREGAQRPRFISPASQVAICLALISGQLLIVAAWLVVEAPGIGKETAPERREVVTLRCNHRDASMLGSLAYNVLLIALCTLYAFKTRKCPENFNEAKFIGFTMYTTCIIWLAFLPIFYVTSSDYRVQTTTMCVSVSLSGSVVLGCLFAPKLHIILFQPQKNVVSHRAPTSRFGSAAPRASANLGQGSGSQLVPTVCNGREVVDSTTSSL
T1 sequence (Q14BI2 19-872): as the sequence (Q14BI2 19-872 A548F) above, with F530A counted along it

SMILES: N[C@H](C(=O)O)C1[C@@H](C(=O)O)[C@@H]1C(=O)O (some centres unmarked) [DCG-IV]
- efficacy relative to glutamate efficacy ([1]; CRD sensor): 69%
- Hill slope ([1]; azi-CRD sensor, orthosteric agonist alone): 0.94
- Live-cell FRET max response normalized to 1mM glutamate ([1]; azi-CRD sensor, DCG-IV, individual values (N=19)): 0.7559 and 0.727 and 0.7189 and 0.7035 and 0.632 and 0.6169 and 0.7378 and 0.6793 and 0.6073 and 0.6642 and 0.7117 and 0.7276 and 0.6566 and 0.7993 and 0.7099 and 0.6625 and 0.714 and 0.6368 and 0.7062
- Mean max response (normalized max ΔFRET) ([1]; azi-CRD, agonist alone (1 mM glutamate, 100 μM DCG-IV, 20 μM LY379268, 100 μM APDC), normalized to 1 mM glutamate): 0.69
- Normalized Max ΔFRET ([1]; azi-CRD, 100μM agonist, individual cells, normalized to 1mM glutamate): 66.2522 and 61.6858 and 73.7778 and 67.9245 and 60.7306 and 66.4234 and 71.1688 and 72.7619 and 65.6646 and 79.932 and 70.9877 and 71.4032 and 63.6793 and 70.615 and 75.5857 and 72.6994 and 71.8894 and 70.347 and 63.2035
- Normalized Max ΔFRET, Mean ([1]; azi-CRD, 100μM agonist, mean of cells, normalized to 1mM glutamate): 69.3017
- Normalized FRET response, Mean (azi-CRD agonist DRC) ([1]; log[ligand] (M) -4): 0.693
- Normalized FRET response, Mean (azi-CRD agonist DRC) ([1]; log[ligand] (M) -4.1549): 0.638
- Normalized FRET response, Mean (azi-CRD agonist DRC) ([1]; log[ligand] (M) -4.52288): 0.594
- Normalized FRET response, Mean (azi-CRD agonist DRC) ([1]; log[ligand] (M) -5): 0.6438
- Normalized FRET response, Mean (azi-CRD agonist DRC) ([1]; log[ligand] (M) -5.39794): 0.5492
- Normalized FRET response, Mean (azi-CRD agonist DRC) ([1]; log[ligand] (M) -5.82391): 0.4312
- Normalized FRET response, Mean (azi-CRD agonist DRC) ([1]; log[ligand] (M) -6): 0.3274
- Normalized FRET response, Mean (azi-CRD agonist DRC) ([1]; log[ligand] (M) -6.52288): 0.164
- Normalized FRET response, Mean (azi-CRD agonist DRC) ([1]; log[ligand] (M) -7): 0.06087
- Normalized FRET response, Mean (azi-CRD agonist DRC) ([1]; log[ligand] (M) -8): 0
- EC50 ([1]; read-out: Live-cell FRET titration EC50, azi-CRD, agonist alone, individual experiments): 1530 nM and 1470 nM and 783 nM and 580 nM and 528 nM and 523 nM and 890 nM and 1360 nM and 1600 nM and 2080 nM
- EC50 ([1]; read-out: Mean half-maximum effective concentration (EC50), azi-CRD sensor, orthosteric agonist alone): 1100 nM
- efficacy relative to glutamate efficacy ([2]; ECL2 sensor): 64%
- Mean max response (normalized max ΔFRET) ([2]; azi-ECL2, agonist alone (1 mM glutamate, 100 μM DCG-IV, 20 μM LY379268, 100 μM APDC), normalized to 1 mM glutamate): 0.64
- Normalized ΔFRET response, Mean (agonist DRC) ([2]; azi-ECL2, log[agonist] (M) -4, normalized to 1 mM glutamate): 0.6388
- Normalized ΔFRET response, Mean (agonist DRC) ([2]; azi-ECL2, log[agonist] (M) -4.52288, normalized to 1 mM glutamate): 0.6117
- Normalized ΔFRET response, Mean (agonist DRC) ([2]; azi-ECL2, log[agonist] (M) -5, normalized to 1 mM glutamate): 0.5883
- Normalized ΔFRET response, Mean (agonist DRC) ([2]; azi-ECL2, log[agonist] (M) -5.39794, normalized to 1 mM glutamate): 0.5288
- Normalized ΔFRET response, Mean (agonist DRC) ([2]; azi-ECL2, log[agonist] (M) -5.82391, normalized to 1 mM glutamate): 0.4325
- Normalized ΔFRET response, Mean (agonist DRC) ([2]; azi-ECL2, log[agonist] (M) -6.09691, normalized to 1 mM glutamate): 0.3472
- Normalized ΔFRET response, Mean (agonist DRC) ([2]; azi-ECL2, log[agonist] (M) -6.52288, normalized to 1 mM glutamate): 0.1978
- Normalized ΔFRET response, Mean (agonist DRC) ([2]; azi-ECL2, log[agonist] (M) -7, normalized to 1 mM glutamate): 0.04555
- Normalized ΔFRET response, Mean (agonist DRC) ([2]; azi-ECL2, log[agonist] (M) -7.30103, normalized to 1 mM glutamate): 0.01237
- Normalized ΔFRET response, Mean (agonist DRC) ([2]; azi-ECL2, log[agonist] (M) -7.69897, normalized to 1 mM glutamate): 0
- Normalized Max ΔFRET ([2]; azi-ECL2, 100μM agonist, individual cells, normalized to 1mM glutamate): 75.6239 and 62.1009 and 89.9691 and 84.6273 and 55.3373 and 55.3387 and 55.3355 and 62.696 and 49.3687 and 57.2855 and 56.6756 and 63.6013 and 56.6982 and 53.3737 and 53.7969 and 61.9848 and 59.9837 and 58.1516 and 63.6225 and 66.6797 and 61.402 and 83.697 and 67.4032 and 68.3214 and 74.0066
- Normalized Max ΔFRET, Mean ([2]; azi-ECL2, 100μM agonist, mean of cells, normalized to 1mM glutamate): 63.8832
- Hill slope ([2]; azi-ECL2 sensor, orthosteric agonist alone): 1.05
- Live-cell FRET max response normalized to 1mM glutamate ([2]; azi-ECL2 sensor, DCG-IV, individual values (N=25)): 0.614 and 0.837 and 0.674 and 0.6832 and 0.7401 and 0.621 and 0.8997 and 0.8463 and 0.5534 (3×) and 0.627 and 0.4937 and 0.5728 and 0.5668 and 0.567 and 0.5337 and 0.538 and 0.6199 and 0.5998 and 0.5815 and 0.7562 and 0.636 and 0.6362 and 0.6668
- EC50 ([2]; read-out: EC50, live-cell FRET titration, azi-ECL2 sensor, DCG-IV, individual cell values (N=24)): 407 nM and 1580 nM and 2080 nM and 2050 nM and 1660 nM and 1520 nM and 1840 nM and 2020 nM and 1160 nM and 2070 nM and 563 nM and 325 nM and 399 nM and 405 nM and 280 nM and 445 nM and 366 nM and 629 nM and 300 nM and 459 nM and 417 nM and 327 nM and 390 nM and 398 nM
- EC50 ([2]; read-out: Mean half-maximum effective concentration (EC50), azi-ECL2 sensor, orthosteric agonist alone): 900 nM
- Mean max response (normalized max ΔFRET) ([3]; SNAP-m2 (VFT), agonist alone (1 mM glutamate, 100 μM DCG-IV, 20 μM LY379268, 100 μM APDC), normalized to 1 mM glutamate): 0.79
- Normalized Max ΔFRET ([3]; SNAP-m2, 100μM agonist, individual cells, normalized to 1mM glutamate): 84.7663 and 70.8926 and 74.3888 and 73.8095 and 75.8105 and 75.3951 and 75.9881 and 74.211 and 74.4971 and 73.9262 and 75.3591 and 85.075 and 75.8448 and 76.6206 and 81.7136 and 78.0427 and 77.2768 and 74.1653 and 84.8254 and 80.7786 and 86.2145 and 83.3004 and 84.7137 and 86.1165 and 84.7264
- Normalized Max ΔFRET, Mean ([3]; SNAP-m2, 100μM agonist, mean of cells, normalized to 1mM glutamate): 78.7384
- Hill slope ([3]; SNAP-m2 sensor, orthosteric agonist alone): –1.26
- Live-cell FRET max response normalized to 1mM glutamate ([3]; SNAP-m2 sensor, DCG-IV, individual values (N=25)): 0.8621 and 0.833 and 0.8471 and 0.8612 and 0.8473 and 0.7089 and 0.7439 and 0.7381 and 0.7581 and 0.754 and 0.7599 and 0.7421 and 0.745 and 0.7393 and 0.7536 and 0.7584 and 0.7662 and 0.8171 and 0.7804 and 0.7728 and 0.7417 and 0.8477 and 0.8508 and 0.8482 and 0.8078
- efficacy relative to glutamate efficacy ([3]; VFT domain FRET sensor): 79%
- Normalized FRET response, Mean (SNAP-m2 agonist DRC) ([3]; log[ligand] (M) -4): -0.7874
- Normalized FRET response, Mean (SNAP-m2 agonist DRC) ([3]; log[ligand] (M) -4.52288): -0.8342
- Normalized FRET response, Mean (SNAP-m2 agonist DRC) ([3]; log[ligand] (M) -5): -0.8388
- Normalized FRET response, Mean (SNAP-m2 agonist DRC) ([3]; log[ligand] (M) -5.39794): -0.8023
- Normalized FRET response, Mean (SNAP-m2 agonist DRC) ([3]; log[ligand] (M) -5.82391): -0.7016
- Normalized FRET response, Mean (SNAP-m2 agonist DRC) ([3]; log[ligand] (M) -6.09691): -0.5309
- Normalized FRET response, Mean (SNAP-m2 agonist DRC) ([3]; log[ligand] (M) -6.52288): -0.3457
- Normalized FRET response, Mean (SNAP-m2 agonist DRC) ([3]; log[ligand] (M) -7): -0.1181
- Normalized FRET response, Mean (SNAP-m2 agonist DRC) ([3]; log[ligand] (M) -7.30103): -0.04846
- Normalized FRET response, Mean (SNAP-m2 agonist DRC) ([3]; log[ligand] (M) -7.69897): 0
- EC50 ([3]; read-out: Live-cell FRET titration EC50, SNAP-m2, agonist alone, individual experiments): 601 nM and 624 nM and 283 nM and 314 nM and 294 nM and 323 nM
- EC50 ([3]; read-out: Mean half-maximum effective concentration (EC50), SNAP-m2 sensor, orthosteric agonist alone): 400 nM
- Normalized Max Intracellular Ca2+ Response, individual experiments ([4]; 100 μM DCG-IV, 10 μM LY379268, 300 μM APDC, normalized to 1 mM glutamate, single replicate): 0.684 and 0.6918 and 0.7087
- Normalized Max Intracellular Ca2+ Response, mean ([4]; 1 mM Glu, 100 μM DCG-IV, 10 μM LY379268, 300 μM APDC, normalized to 1 mM glutamate): 0.6948
- efficacy relative to glutamate efficacy ([4]; functional calcium imaging assay): 69%
- Intracellular Ca2+ response, Mean ([4]; log[agonist] (M) -4): 0.6948
- Intracellular Ca2+ response ([4]; log[agonist] (M) -4): 0.6948
- Intracellular Ca2+ response, Mean ([4]; log[agonist] (M) -4.52288): 0.7042
- Intracellular Ca2+ response ([4]; log[agonist] (M) -4.52288): 0.7332 and 0.6724 and 0.7069
- Intracellular Ca2+ response, Mean ([4]; log[agonist] (M) -5): 0.632
- Intracellular Ca2+ response ([4]; log[agonist] (M) -5): 0.631 and 0.6318 and 0.6332
- Intracellular Ca2+ response, Mean ([4]; log[agonist] (M) -5.39794): 0.5754
- Intracellular Ca2+ response ([4]; log[agonist] (M) -5.39794): 0.5417 and 0.5882 and 0.5962
- Intracellular Ca2+ response, Mean ([4]; log[agonist] (M) -5.82391): 0.3655
- Intracellular Ca2+ response ([4]; log[agonist] (M) -5.82391): 0.2777 and 0.362 and 0.4567
- Intracellular Ca2+ response, Mean ([4]; log[agonist] (M) -6): 0.3093
- Intracellular Ca2+ response ([4]; log[agonist] (M) -6): 0.2196 and 0.3072 and 0.4011
- Intracellular Ca2+ response, Mean ([4]; log[agonist] (M) -6.52288): 0.06286
- Intracellular Ca2+ response, Mean ([4]; log[agonist] (M) -7): 0
- Intracellular Ca2+ response ([4]; log[agonist] (M) -7): 0
- Intracellular Ca2+ response, Mean ([4]; log[agonist] (M) -8): 0
- Intracellular Ca2+ response ([4]; log[agonist] (M) -8): 0
